Data set [1] addresses Prostaglandin F2-alpha receptor (Mus musculus, UniProt P43117).
Description: Agonist activity at FP receptor in mouse 3T3 fibroblast cells assessed as intracellular calcium mobilization by FLIPR
Data set [2] deals with Prostaglandin F2-alpha receptor (Mus musculus) (UniProt P43117). In words: Intrinsic activity at FP receptor in mouse 3T3 fibroblast cells assessed as maximum compound-evoked response. The data set is classed as cell-based.
Data set [3] in a line: in vitro. The conditions noted are these: rabbit.
Description: Corneal permeability in rabbit corneal tissues mounted on vertical Using chambers
Data set [4] in a line: in vitro. The settings on record: human, Caco-2.
Description: Permeability across human Caco2 cells

Prostaglandin F2-alpha receptor (Mus musculus), sequence (P43117 whole entry): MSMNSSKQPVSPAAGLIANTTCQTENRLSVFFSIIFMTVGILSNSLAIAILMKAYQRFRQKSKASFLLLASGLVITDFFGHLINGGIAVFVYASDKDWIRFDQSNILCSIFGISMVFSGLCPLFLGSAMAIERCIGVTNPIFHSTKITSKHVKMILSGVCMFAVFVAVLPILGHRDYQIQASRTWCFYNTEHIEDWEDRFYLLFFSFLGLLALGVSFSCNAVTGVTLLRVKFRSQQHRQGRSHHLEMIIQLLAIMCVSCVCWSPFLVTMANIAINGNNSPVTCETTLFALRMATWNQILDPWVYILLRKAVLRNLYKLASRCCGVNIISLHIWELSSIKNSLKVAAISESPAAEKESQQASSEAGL
Prostaglandin F2-alpha receptor, sequence (P43117 whole entry): as above

For `CCCCC[C@H](O)/C=C/[C@@H]1[C@@H](C/C=C\CCCC(=O)NCCc2ccc(S(N)(=O)=O)cc2)[C@@H](O)C[C@H]1O`, in data set [1], the EC50 (as a rule, the concentration at which the effect is half-maximal) is greater than 5.01 µM.
As for `CCCCC[C@H](O)/C=C/[C@@H]1[C@@H](C/C=C\CCCC(=O)O)[C@@H](O)C[C@H]1O` [DINOPROST], the Intrinsic activity in data set [2] worked out at 1. Moreover, the Papp (usually a coefficient for how fast a substance crosses the barrier) in “in vitro [3]” came to 9.7 ×10⁻⁶ cm/s; in the data set “in vitro [4]”, 3.3 ×10⁻⁶ cm/s.
On to `CCCCC[C@H](O)/C=C/[C@@H]1[C@@H](C/C=C\CCCC(=O)Nc2nnc(S(N)(=O)=O)s2)[C@@H](O)C[C@H]1O`, for which the Intrinsic activity in data set [2] came to 0.9. For the same molecule, the midpoint of the response in data set [1], the EC50, lay at 3.98 µM. For the same molecule, the Papp in the data set “in vitro [3]” was determined as 6.4 ×10⁻⁶ cm/s; in “in vitro [4]” it was 1.6 ×10⁻⁶ cm/s.
`CCN(C(=O)/C=C/[C@@H]1[C@@H](C/C=C\CCCC(=O)O)[C@@H](O)C[C@H]1O)[C@H]1C[C@H](C)S(=O)(=O)C2SC(S(N)(=O)=O)=CC21` (some centres undefined) displayed an EC50 in data set [1] greater than 5.01 µM.
Still for that read-out and setting: to `CCCCC[C@H](O)/C=C/[C@@H]1[C@@H](C/C=C\CCCC(=O)N(CC)[C@H]2CN(CCCOC)S(=O)(=O)C3SC(S(N)(=O)=O)=CC32)[C@@H](O)C[C@H]1O` (some centres undefined) belongs greater than 5.01 µM; to `CC(C)OC(=O)CCC/C=C\C[C@@H]1[C@@H](/C=C/C(=O)Nc2nnc(S(N)(=O)=O)s2)[C@H](O)C[C@@H]1O`, greater than 5.01 µM; to `CCN(C(=O)/C=C/[C@@H]1[C@@H](C/C=C\CCCC(=O)OC(C)C)[C@@H](O)C[C@H]1O)[C@H]1C[C@H](C)S(=O)(=O)C2SC(S(N)(=O)=O)=CC21` (some centres undefined), greater than 5.01 µM.
In turn, `NS(=O)(=O)c1nnc(NC(=O)CNC[C@@H]2[C@@H](C/C=C\CCCC(=O)O)[C@@H](O)C[C@H]2O)s1` returned an EC50 in data set [1] greater than 5.01 µM. Also, the Papp was 0.94 ×10⁻⁶ cm/s in the data set “in vitro [3]” and 3 ×10⁻⁶ cm/s in “in vitro [4]”.
With `CC(C)OC(=O)CCC/C=C\C[C@@H]1[C@@H](CNCC(=O)Nc2nnc(S(N)(=O)=O)s2)[C@H](O)C[C@@H]1O`, the concentration giving a half-maximal response (EC50) in data set [1] was greater than 5.01 µM. Besides, the Papp in “in vitro [3]” came to 3.1 ×10⁻⁶ cm/s; in the data set “in vitro [4]” it was 2.1 ×10⁻⁶ cm/s.
`NS(=O)(=O)c1ccc(-n2cc([C@@H]3[C@@H](C/C=C\CCCC(=O)O)[C@@H](O)C[C@H]3O)nn2)cc1`: the Intrinsic activity in data set [2] is greater than 1. In addition, a half-maximal response in data set [1] (EC50) required 2 µM. In addition, the apparent permeability (Papp) came out at 1.7 ×10⁻⁶ cm/s in the data set “in vitro [3]” and 3.3 ×10⁻⁶ cm/s in the data set “in vitro [4]”.
`COC(=O)CCC/C=C\C[C@@H]1[C@@H](c2cn(-c3ccc(S(N)(=O)=O)cc3)nn2)[C@H](O)C[C@@H]1O` returned an EC50 in data set [1] greater than 5.01 µM. The Papp was 2.1 ×10⁻⁶ cm/s in the data set “in vitro [3]” and 3.2 ×10⁻⁶ cm/s in “in vitro [4]”.
As to `O=C(O)CCC/C=C\C[C@@H]1[C@@H](CC[C@@H](O)CCc2ccccc2)[C@H](O)C[C@@H]1O` [LATANOPROST ACID], the Intrinsic activity in data set [2] came out at 1. Besides, the concentration for a half-maximal effect (EC50) in data set [1] is 0.00631 µM. In addition, the apparent permeability coefficient (Papp) in the data set “in vitro [3]” stood at 1.2 ×10⁻⁶ cm/s; in the data set “in vitro [4]” it was 3.5 ×10⁻⁶ cm/s.
